Test results published in patent publication US11857519B2, “Compounds and methods for the targeted degradation of enhancer of zeste homolog 2 polypeptide” (Arvinas Operations, Inc., priority 2016, dated 2024).

Biological target: T1, EZH2 (Homo sapiens, UniProt Q15910)
T1 construct: Protocol of the Cellular Assay of Target Protein Degradation (VCaP Cells, ELISA); endogenous in cells; host or cells: VCaP cells
Experiment: Cellular assay of target protein degradation (VCaP cells, ELISA)
Format: cell-based
Settings: 4 hours, protein degradation range at indicated concentration (relative to DMSO control)
Summary of the method: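 VCaP cells grown ≥3 days in RPMI with 5% CSS, then dosed with compounds in 0.1% DMSO for 4 h. Lysates analysed by sandwich ELISA for EZH2 with TMB readout at 450 nm, 562 nm used for background subtraction.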

T1 sequence (Q15910 whole entry): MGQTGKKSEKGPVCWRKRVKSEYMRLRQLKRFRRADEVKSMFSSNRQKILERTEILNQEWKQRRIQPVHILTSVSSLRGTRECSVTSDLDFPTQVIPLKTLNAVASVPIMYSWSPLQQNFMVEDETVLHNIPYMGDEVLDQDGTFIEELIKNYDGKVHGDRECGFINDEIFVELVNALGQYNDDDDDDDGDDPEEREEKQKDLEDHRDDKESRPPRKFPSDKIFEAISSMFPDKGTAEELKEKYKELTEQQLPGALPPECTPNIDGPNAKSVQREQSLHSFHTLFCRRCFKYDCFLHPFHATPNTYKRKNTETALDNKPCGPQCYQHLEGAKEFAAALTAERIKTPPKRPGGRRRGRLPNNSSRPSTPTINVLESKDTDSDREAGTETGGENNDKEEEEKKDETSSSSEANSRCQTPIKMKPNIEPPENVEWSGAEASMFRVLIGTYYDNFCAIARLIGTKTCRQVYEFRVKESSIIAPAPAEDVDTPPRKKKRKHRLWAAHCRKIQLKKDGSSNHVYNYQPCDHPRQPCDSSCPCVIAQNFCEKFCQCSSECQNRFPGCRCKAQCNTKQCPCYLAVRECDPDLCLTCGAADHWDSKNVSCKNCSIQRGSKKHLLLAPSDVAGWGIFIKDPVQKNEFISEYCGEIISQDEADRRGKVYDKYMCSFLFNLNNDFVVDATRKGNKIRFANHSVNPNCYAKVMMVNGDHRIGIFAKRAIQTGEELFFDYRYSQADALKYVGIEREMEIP
T1 sequence (O75530 whole entry partner): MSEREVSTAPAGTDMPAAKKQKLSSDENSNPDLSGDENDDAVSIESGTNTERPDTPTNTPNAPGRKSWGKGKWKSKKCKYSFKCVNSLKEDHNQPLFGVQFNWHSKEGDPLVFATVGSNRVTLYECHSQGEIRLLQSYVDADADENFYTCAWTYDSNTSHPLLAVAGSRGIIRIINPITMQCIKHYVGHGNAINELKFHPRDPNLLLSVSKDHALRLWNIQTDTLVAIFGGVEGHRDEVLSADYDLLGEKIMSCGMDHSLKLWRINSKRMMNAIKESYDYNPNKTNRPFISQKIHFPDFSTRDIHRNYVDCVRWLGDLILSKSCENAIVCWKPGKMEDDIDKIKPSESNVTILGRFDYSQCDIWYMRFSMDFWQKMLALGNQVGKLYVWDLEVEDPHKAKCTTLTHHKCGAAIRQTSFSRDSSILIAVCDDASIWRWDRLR
T1 sequence (Q15022 whole entry partner): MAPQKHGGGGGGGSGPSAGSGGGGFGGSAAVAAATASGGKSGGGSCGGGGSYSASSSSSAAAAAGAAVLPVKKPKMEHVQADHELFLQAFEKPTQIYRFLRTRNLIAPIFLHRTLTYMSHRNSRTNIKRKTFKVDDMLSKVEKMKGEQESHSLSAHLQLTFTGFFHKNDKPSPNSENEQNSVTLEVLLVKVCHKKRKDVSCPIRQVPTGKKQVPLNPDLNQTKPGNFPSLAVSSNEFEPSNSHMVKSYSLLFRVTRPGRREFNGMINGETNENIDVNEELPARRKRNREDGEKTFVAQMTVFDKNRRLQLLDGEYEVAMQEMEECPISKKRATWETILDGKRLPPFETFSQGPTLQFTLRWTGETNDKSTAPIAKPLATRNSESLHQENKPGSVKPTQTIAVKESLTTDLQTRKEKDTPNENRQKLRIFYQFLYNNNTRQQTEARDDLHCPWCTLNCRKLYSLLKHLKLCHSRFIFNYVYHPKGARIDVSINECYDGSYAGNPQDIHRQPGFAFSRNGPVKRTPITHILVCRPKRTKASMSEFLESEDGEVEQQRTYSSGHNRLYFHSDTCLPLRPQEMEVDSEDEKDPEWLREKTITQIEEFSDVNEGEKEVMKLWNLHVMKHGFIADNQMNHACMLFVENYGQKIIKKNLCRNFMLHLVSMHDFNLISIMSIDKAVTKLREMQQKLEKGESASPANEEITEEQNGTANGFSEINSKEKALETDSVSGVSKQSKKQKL

| Structure (SMILES) | percent target protein degradation class |
| --- | --- |
| CCN(c1cc(-c2ccc(OCCCOCCCOCC(=O)N[C@H](C(=O)N3C[C@H](O)C[C@H]3C(=O)NCc3ccc(-c4scnc4C)cc3)C(C)(C)C)cc2)cc(C(=O)NCc2c(C)cc(C)[nH]c2=O)c1C)C1CCOCC1 [Compound 48, (2S,4R)-1-[(2S)-2-[2-(3-{3-[4-(3-{[(4,6-dimethyl-2-oxo-1,2-dihydropyridin-3-yl)methyl]carbamoyl}-5-[ethyl(oxan-4-yl)amino]-4-methylphenyl)phenoxy]propoxy}propoxy)acetamido]-3,3-dimethylbutanoyl]-4-hydroxy-N-{[4-(4-methyl-1,3-thiazol-5-yl)phenyl]methyl}pyrrolidine-2-carboxamide] | A (A = degradation more than 60%) |
| CCN(c1cc(-c2ccc(OCCOCCCCCOc3cc(-c4scnc4C)ccc3CNC(=O)[C@@H]3C[C@@H](O)CN3C(=O)[C@H](C(C)C)N3Cc4ccccc4C3=O)cc2)cc(C(=O)NCc2c(C)cc(C)[nH]c2=O)c1C)C1CCOCC1 [Compound 49, (2S,4R)-N-({2-[(5-{2-[4-(3-{[(4,6-dimethyl-2-oxo-1,2-dihydropyridin-3-yl)methyl]carbamoyl}-5-[ethyl(oxan-4-yl)amino]-4-methylphenyl)phenoxy]ethoxy}pentyl)oxy]-4-(4-methyl-1,3-thiazol-5-yl)phenyl}methyl)-4-hydroxy-1-[(2S)-3-methyl-2-(1-oxo-2,3-dihydro-1H-isoindol-2-yl)butanoyl]pyrrolidine-2-carboxamide] | B (B = degradation between 30% and 60%) |
| CCN(c1cc(-c2ccc(OCCCCCOCCOc3cc(-c4scnc4C)ccc3CNC(=O)[C@@H]3C[C@@H](O)CN3C(=O)[C@H](C(C)C)N3Cc4ccccc4C3=O)cc2)cc(C(=O)NCc2c(C)cc(C)[nH]c2=O)c1C)C1CCOCC1 [Compound 50, (2S,4R)-N-({2-[2-({5-[4-(3-{[(4,6-dimethyl-2-oxo-1,2-dihydropyridin-3-yl)methyl]carbamoyl}-5-[ethyl(oxan-4-yl)amino]-4-methylphenyl)phenoxy]pentyl}oxy)ethoxy]-4-(4-methyl-1,3-thiazol-5-yl)phenyl}methyl)-4-hydroxy-1-[(2S)-3-methyl-2-(1-oxo-2,3-dihydro-1H-isoindol-2-yl)butanoyl]pyrrolidine-2-carboxamide] | A (A = degradation more than 60%) |
| CCN(c1cc(-c2ccc(OCCCOCCCCOc3cc(-c4scnc4C)ccc3CNC(=O)[C@@H]3C[C@@H](O)CN3C(=O)[C@H](C(C)C)N3Cc4ccccc4C3=O)cc2)cc(C(=O)NCc2c(C)cc(C)[nH]c2=O)c1C)C1CCOCC1 [Compound 51, (2S,4R)-N-{[2-(4-{3-[4-(3-{[(4,6-dimethyl-2-oxo-1,2-dihydropyridin-3-yl)methyl]carbamoyl}-5-[ethyl(oxan-4-yl)amino]-4-methylphenyl)phenoxy]propoxy}butoxy)-4-(4-methyl-1,3-thiazol-5-yl)phenyl]methyl}-4-hydroxy-1-[(2S)-3-methyl-2-(1-oxo-2,3-dihydro-1H-isoindol-2-yl)butanoyl]pyrrolidine-2-carboxamide] | B (B = degradation between 30% and 60%) |
| CCN(c1cc(-c2ccc(OCCCCOCCOc3cc(-c4scnc4C)ccc3CNC(=O)[C@@H]3C[C@@H](O)CN3C(=O)[C@H](C(C)C)N3Cc4ccccc4C3=O)cc2)cc(C(=O)NCc2c(C)cc(C)[nH]c2=O)c1C)C1CCOCC1 [Compound 53, (2S,4R)-N-{[2-(2-{4-[4-(3-{[(4,6-dimethyl-2-oxo-1,2-dihydropyridin-3-yl)methyl]carbamoyl}-5-[ethyl(oxan-4-yl)amino]-4-methylphenyl)phenoxy]butoxy}ethoxy)-4-(4-methyl-1,3-thiazol-5-yl)phenyl]methyl}-4-hydroxy-1-[(2S)-3-methyl-2-(1-oxo-2,3-dihydro-1H-isoindol-2-yl)butanoyl]pyrrolidine-2-carboxamide] | B (B = degradation between 30% and 60%) |
| CCN(c1cc(-c2ccc(OCCCCOCCOCCOc3cc(-c4scnc4C)ccc3CNC(=O)[C@@H]3C[C@@H](O)CN3C(=O)[C@H](C(C)C)N3Cc4ccccc4C3=O)cc2)cc(C(=O)NCc2c(C)cc(C)[nH]c2=O)c1C)C1CCOCC1 [Compound 55, (2S,4R)-N-({2-[2-(2-{4-[4-(3-{[(4,6-dimethyl-2-oxo-1,2-dihydropyridin-3-yl)methyl]carbamoyl}-5-[ethyl(oxan-4-yl)amino]-4-methylphenyl)phenoxy]butoxy}ethoxy)ethoxy]-4-(4-methyl-1,3-thiazol-5-yl)phenyl}methyl)-4-hydroxy-1-[(2S)-3-methyl-2-(1-oxo-2,3-dihydro-1H-isoindol-2-yl)butanoyl]pyrrolidine-2-carboxamide] | B (B = degradation between 30% and 60%) |
| CCN(c1cc(-c2ccc(N3CCN(CCCCOCC(=O)N[C@H](C(=O)N4C[C@H](O)C[C@H]4C(=O)N[C@@H](C)c4ccc(-c5scnc5C)cc4)C(C)(C)C)CC3)cc2)cc(C(=O)NCc2c(C)cc(C)[nH]c2=O)c1C)C1CCOCC1 [Compound 59, (2S,4R)-1-((S)-2-(2-(4-(4-(3′-(((4,6-dimethyl-2-oxo-1,2-dihydropyridin-3-yl)methyl)carbamoyl)-5′-(ethyl(tetrahydro-2H-pyran-4-yl)amino)-4′-methyl-[1,1′-biphenyl]-4-yl)piperazin-1-yl)butoxy)acetamido)-3,3-dimethylbutanoyl)-4-hydroxy-N-((S)-1-(4-(4-methylthiazol-5-yl)phenyl)ethyl)pyrrolidine-2-carboxamide] | B (B = degradation between 30% and 60%) |
| CCN(c1cc(-c2ccc(OCCCCOc3ccc4c(c3)C(=O)N(C3CCC(=O)NC3=O)C4=O)cc2)cc(C(=O)NCc2c(C)cc(C)[nH]c2=O)c1C)C1CCOCC1 (centres unmarked) [Compound 60, N-[(4,6-dimethyl-2-oxo-1,2-dihydropyridin-3-yl)methyl]-5-[4-(4-{[2-(2,6-dioxopiperidin-3-yl)-1,3-dioxo-2,3-dihydro-1H-isoindol-5-yl]oxy}butoxy)phenyl]-3-[ethyl(oxan-4-yl)amino]-2-methylbenzamide] | A (A = degradation more than 60%) |

Further lines, results first:

| percent target protein degradation class | Structure (SMILES) |
| --- | --- |
| B (B = degradation between 30% and 60%) | CCN(c1cc(-c2ccc(OCCCOCCOCCOc3cc(-c4scnc4C)ccc3CNC(=O)[C@@H]3C[C@@H](O)CN3C(=O)[C@H](C(C)C)N3Cc4ccccc4C3=O)cc2)cc(C(=O)NCc2c(C)cc(C)[nH]c2=O)c1C)C1CCOCC1 [Compound 54, (2S,4R)-N-({2-[2-(2-{3-[4-(3-{[(4,6-dimethyl-2-oxo-1,2-dihydropyridin-3-yl)methyl]carbamoyl}-5-[ethyl(oxan-4-yl)amino]-4-methylphenyl)phenoxy]propoxy}ethoxy)ethoxy]-4-(4-methyl-1,3-thiazol-5-yl)phenyl}methyl)-4-hydroxy-1-[(2S)-3-methyl-2-(1-oxo-2,3-dihydro-1H-isoindol-2-yl)butanoyl]pyrrolidine-2-carboxamide] |
| B (B = degradation between 30% and 60%) | CCN(c1cc(-c2ccc(OCCCOCCOc3cc(-c4scnc4C)ccc3CNC(=O)[C@@H]3C[C@@H](O)CN3C(=O)[C@H](C(C)C)N3Cc4ccccc4C3=O)cc2)cc(C(=O)NCc2c(C)cc(C)[nH]c2=O)c1C)C1CCOCC1 [Compound 56, (2S,4R)-N-{[2-(2-{3-[4-(3-{[(4,6-dimethyl-2-oxo-1,2-dihydropyridin-3-yl)methyl]carbamoyl}-5-[ethyl(oxan-4-yl)amino]-4-methylphenyl)phenoxy]propoxy}ethoxy)-4-(4-methyl-1,3-thiazol-5-yl)phenyl]methyl}-4-hydroxy-1-[(2S)-3-methyl-2-(1-oxo-2,3-dihydro-1H-isoindol-2-yl)butanoyl]pyrrolidine-2-carboxamide] |
| B (B = degradation between 30% and 60%) | CCN(c1cc(-c2ccc(OCCOCCOc3ccc4c(c3)C(=O)N(C3CCC(=O)NC3=O)C4=O)cc2)cc(C(=O)NCc2c(C)cc(C)[nH]c2=O)c1C)C1CCOCC1 (centres unmarked) [Compound 57, N-[(4,6-dimethyl-2-oxo-1,2-dihydropyridin-3-yl)methyl]-5-{4-[2-(2-{[2-(2,6-dioxopiperidin-3-yl)-1,3-dioxo-2,3-dihydro-1H-isoindol-5-yl]oxy}ethoxy)ethoxy]phenyl}-3-[ethyl(oxan-4-yl)amino]-2-methylbenzamide] |
| A (A = degradation more than 60%) | CCN(c1cc(-c2ccc(OCCOCCCOc3ccc4c(c3)C(=O)N(C3CCC(=O)NC3=O)C4=O)cc2)cc(C(=O)NCc2c(C)cc(C)[nH]c2=O)c1C)C1CCOCC1 (centres unmarked) [Compound 58, N-[(4,6-dimethyl-2-oxo-1,2-dihydropyridin-3-yl)methyl]-5-{4-[2-(3-{[2-(2,6-dioxopiperidin-3-yl)-1,3-dioxo-2,3-dihydro-1H-isoindol-5-yl]oxy}propoxy)ethoxy]phenyl}-3-[ethyl(oxan-4-yl)amino]-2-methylbenzamide] |
| B (B = degradation between 30% and 60%) | CCN(c1cc(-c2ccc(OCCCN3CCN(c4ccc5c(c4)C(=O)N(C4CCC(=O)NC4=O)C5=O)CC3)cc2)cc(C(=O)NCc2c(C)cc(C)[nH]c2=O)c1C)C1CCOCC1 (centres unmarked) [Compound 61, N-[(4,6-dimethyl-2-oxo-1,2-dihydropyridin-3-yl)methyl]-5-[4-(3-{4-[2-(2,6-dioxopiperidin-3-yl)-1,3-dioxo-2,3-dihydro-1H-isoindol-5-yl]piperazin-1-yl}propoxy)phenyl]-3-[ethyl(oxan-4-yl)amino]-2-methylbenzamide] |
| B (B = degradation between 30% and 60%) | CCN(c1cc(-c2ccc(OCCCOCCCOc3ccc4c(c3)C(=O)N(C3CCC(=O)NC3=O)C4=O)cc2)cc(C(=O)NCc2c(C)cc(C)[nH]c2=O)c1C)C1CCOCC1 (centres unmarked) [Compound 62, N-[(4,6-dimethyl-2-oxo-1,2-dihydropyridin-3-yl)methyl]-5-{4-[3-(3-{[2-(2,6-dioxopiperidin-3-yl)-1,3-dioxo-2,3-dihydro-1H-isoindol-5-yl]oxy}propoxy)propoxy]pheny 1}-3-[ethyl(oxan-4-yl)amino]-2-methylbenzamide] |
